Source: patent US7767659B2, “Synthesis of naturally occurring ecteinascidins and related compounds” (Pharma Mar, S.A., priority 2002, dated 2010)
Like-named read-outs stand apart in the source and are kept apart here.

Key:
HT-29 = assay: cells; conditions: Homo sapiens, HT-29, 48 h
Procedure, shortened: (§1)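 Colorimetric SRB read (490 nm) on triplicate wells after 48 h at 37 °C, 5% CO2. Dose range 10 to 10^−8 μg/ml; 5×10^3 cells/well pre-attached 18 h.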

LoVo = assay: cells; conditions: Homo sapiens, LoVo, 48 h
Procedure, shortened: as §1

A-549 = assay: cells; conditions: Homo sapiens, A549, 48 h
Procedure, shortened: as §1

DU-145 = assay: Inhibition of cells growth by colorimetric assay (SRB); conditions: Homo sapiens, DU-145, 48 h
Procedure, shortened: as §1

IGROV-1 = assay: as above; conditions: Homo sapiens, IGROV-1, 48 h
Procedure, shortened: as §1

SK-BR-3 = assay: as above; conditions: Homo sapiens, SK-BR-3, 48 h
Procedure, shortened: as §1

PANC-1 = assay: as above; conditions: Homo sapiens, PANC-1, 48 h
Procedure, shortened: as §1

SK-MEL-28 = assay: as above; conditions: Homo sapiens, SK-MEL-28, 48 h
Procedure, shortened: as §1

LoVo-Dox = assay: as above; conditions: Homo sapiens, 48 h; for CC50: read-out: LC50 LOVO-DOX
Procedure, shortened: as §1

IGROV-ET = assay: as above; conditions: Homo sapiens, 48 h
Procedure, shortened: as §1

LNCaP = assay: as above; conditions: Homo sapiens, LNCaP, 48 h
Procedure, shortened: as §1

K-562 = assay: as above; conditions: Homo sapiens, K562, 48 h
Procedure, shortened: as §1

HeLa-APL = assay: as above; conditions: Homo sapiens, 48 h
Procedure, shortened: as §1

HeLa = assay: as above; conditions: Homo sapiens, HeLa, 48 h; for CC50: read-out: LC50 HELA
Procedure, shortened: as §1

Compound: C=CCN1[C@@H]2c3c(cc(C)c(OC)c3O)C[C@H]1[C@H](C#N)N1C2[C@@H]2SCC(N)C(=O)OC[C@H]1c1c3c(c(C)c(OC(C)=O)c12)OCO3 (stereo partly shown) [compound 12]
- GI50 (HT-29; read-out: GI50 HT29): 0.503 µM
- CC50 (HT-29; read-out: LC50 HT29): 15.4 µM
- IC (TGI) (HT-29; read-out: TGI HT29): 1.27 µM
- GI50 (LoVo; read-out: GI50 LOVO): 0.399 µM
- CC50 (LoVo; read-out: LC50 LOVO): 3.21 µM
- IC (TGI) (LoVo; read-out: TGI LOVO): 0.808 µM
- GI50 (A-549; read-out: GI50 A549): 0.338 µM
- CC50 (A-549; read-out: LC50 A549): 1.16 µM
- IC (TGI) (A-549; read-out: TGI A549): 0.624 µM
- GI50 (DU-145; read-out: GI50 DU145): 0.535 µM
- CC50 (DU-145; read-out: LC50 DU145): 4.22 µM
- IC (TGI) (DU-145; read-out: TGI DU145): 1.02 µM
- GI50 (IGROV-1; read-out: GI50 IGROV): 0.225 µM
- CC50 (IGROV-1; read-out: LC50 IGROV): 1.05 µM
- IC (TGI) (IGROV-1; read-out: TGI IGROV): 0.486 µM
- GI50 (SK-BR-3; read-out: GI50 SK-BR3): 0.256 µM
- CC50 (SK-BR-3; read-out: LC50 SK-BR3): 0.979 µM
- IC (TGI) (SK-BR-3; read-out: TGI SK-BR3): 0.501 µM
- GI50 (PANC-1; read-out: GI50 PANC-1): 0.472 µM
- CC50 (PANC-1; read-out: LC50 PANC-1): 4.07 µM
- IC (TGI) (PANC-1; read-out: TGI PANC-1): 0.953 µM
- GI50 (SK-MEL-28; read-out: GI50 MEL-28): 0.35 µM
- CC50 (SK-MEL-28; read-out: LC50 MEL-28): 1.03 µM
- IC (TGI) (SK-MEL-28; read-out: TGI MEL-28): 0.603 µM
- GI50 (LoVo-Dox; read-out: GI50 LOVO-DOX): 0.504 µM
- CC50 (LoVo-Dox): 12.2 µM
- IC (TGI) (LoVo-Dox; read-out: TGI LOVO-DOX): 0.971 µM
- GI50 (IGROV-ET; read-out: GI50 IGROV-ET): 0.635 µM
- CC50 (IGROV-ET; read-out: LC50 IGROV-ET): 3.82 µM
- IC (TGI) (IGROV-ET; read-out: TGI IGROV-ET): 1.07 µM
- GI50 (LNCaP; read-out: GI50 LNCAP): 0.0825 µM
- CC50 (LNCaP; read-out: LC50 LNCAP): 0.711 µM
- IC (TGI) (LNCaP; read-out: TGI LNCAP): 0.251 µM
- GI50 (K-562; read-out: GI50 K562): 0.11 µM
- CC50 (K-562; read-out: LC50 K562): 15.4 µM
- IC (TGI) (K-562; read-out: TGI K562): 2.51 µM
- GI50 (HeLa-APL; read-out: GI50 HELA-APL): 0.244 µM
- CC50 (HeLa-APL; read-out: LC50 HELA-APL): 0.914 µM
- IC (TGI) (HeLa-APL; read-out: TGI HELA-APL): 0.472 µM
- GI50 (HeLa; read-out: GI50 HELA): 0.344 µM
- CC50 (HeLa): 1.12 µM
- IC (TGI) (HeLa; read-out: TGI HELA): 0.621 µM

Compound: COc1cc2c(cc1O)CCN[C@]21CS[C@@H]2c3c(OC(C)=O)c(C)c4c(c3[C@H](COC1=O)N1C2C2c3c(cc(C)c(OC)c3O)C[C@@H]([C@@H]1C#N)N2C)OCO4 (stereo partly shown) [Et-770]
- GI50 (HT-29; read-out: HT29 GI50): 0.00586 µM
- CC50 (HT-29; read-out: HT29 LC50): 13 µM
- IC (TGI) (HT-29; read-out: HT29 TGI): 0.013 µM
- GI50 (LoVo; read-out: LOVO GI50): 0.00309 µM
- CC50 (LoVo; read-out: LOVO LC50): 0.0114 µM
- IC (TGI) (LoVo; read-out: LOVO TGI): 0.00593 µM
- GI50 (A-549; read-out: A549 GI50): 0.00324 µM
- CC50 (A-549; read-out: A549 LC50): 5.2 µM
- IC (TGI) (A-549; read-out: A549 TGI): 0.00698 µM
- GI50 (DU-145; read-out: DU145 GI50): 0.00416 µM
- CC50 (DU-145; read-out: DU145 LC50): 13 µM
- IC (TGI) (DU-145; read-out: DU145 TGI): 0.032 µM
- GI50 (IGROV-1; read-out: IGROV GI50): 0.00332 µM
- CC50 (IGROV-1; read-out: IGROV LC50): 13 µM
- IC (TGI) (IGROV-1; read-out: IGROV TGI): 0.00851 µM
- GI50 (SK-BR-3; read-out: SK-BR3 GI50): 0.000986 µM
- CC50 (SK-BR-3; read-out: SK-BR3 LC50): 13 µM
- IC (TGI) (SK-BR-3; read-out: SK-BR3 TGI): 0.0948 µM
- GI50 (PANC-1; read-out: PANC-1 GI50): 0.00553 µM
- CC50 (PANC-1; read-out: PANC-1 LC50): 13 µM
- IC (TGI) (PANC-1; read-out: PANC-1 TGI): 0.115 µM
- GI50 (SK-MEL-28; read-out: MEL-28 GI50): 0.00263 µM
- CC50 (SK-MEL-28; read-out: MEL-28 LC50): 0.0108 µM
- IC (TGI) (SK-MEL-28; read-out: MEL-28 TGI): 0.00534 µM
- GI50 (LoVo-Dox; read-out: LOVO-DOX GI50): 0.0741 µM
- IC (TGI) (LoVo-Dox; read-out: LOVO-DOX TGI): 13 µM
- GI50 (IGROV-ET; read-out: IGROV-ET GI50): 0.0121 µM
- CC50 (IGROV-ET; read-out: IGROV-ET LC50): 13 µM
- IC (TGI) (IGROV-ET; read-out: IGROV-ET TGI): 4.5 µM
- GI50 (LNCaP; read-out: LNCAP GI50): 0.00148 µM
- CC50 (LNCaP; read-out: LNCAP LC50): 0.00634 µM
- IC (TGI) (LNCaP; read-out: LNCAP TGI): 0.00306 µM
- GI50 (K-562; read-out: K562 GI50): 0.00165 µM
- CC50 (K-562; read-out: K562 LC50): 6.63 µM
- IC (TGI) (K-562; read-out: K562 TGI): 0.00802 µM
- GI50 (HeLa-APL; read-out: HELA-APL GI50): 0.00296 µM
- CC50 (HeLa-APL; read-out: HELA-APL LC50): 0.0122 µM
- IC (TGI) (HeLa-APL; read-out: HELA-APL TGI): 0.00601 µM
- GI50 (HeLa; read-out: HELA GI50): 0.00509 µM
- IC (TGI) (HeLa; read-out: HELA TGI): 0.0126 µM

Compound: COC1=C(C)C(=O)C2=C(C1=O)[C@@H]1C3[C@@H]4SC[C@]5(NCCc6c5[nH]c5ccccc65)C(=O)OC[C@@H](c5c6c(c(C)c(OC(C)=O)c54)OCO6)N3[C@@H](C#N)[C@H](C2)N1C (stereo partly shown) [compound 23]
- GI50 (HT-29; read-out: GI50 HT29): 0.0512 µM
- CC50 (HT-29; read-out: LC50 HT29): 12.9 µM
- IC (TGI) (HT-29; read-out: TGI HT29): 0.215 µM
- GI50 (LoVo; read-out: GI50 LOVO): 0.276 µM
- CC50 (LoVo; read-out: LC50 LOVO): 0.983 µM
- IC (TGI) (LoVo; read-out: TGI LOVO): 0.522 µM
- GI50 (A-549; read-out: GI50 A549): 0.0606 µM
- CC50 (A-549; read-out: LC50 A549): 0.785 µM
- IC (TGI) (A-549; read-out: TGI A549): 0.211 µM
- GI50 (DU-145; read-out: GI50 DU145): 0.0585 µM
- CC50 (DU-145; read-out: LC50 DU145): 4.45 µM
- IC (TGI) (DU-145; read-out: TGI DU145): 0.143 µM
- GI50 (IGROV-1; read-out: GI50 IGROV): 0.35 µM
- CC50 (IGROV-1; read-out: LC50 IGROV): 1.13 µM
- IC (TGI) (IGROV-1; read-out: TGI IGROV): 0.627 µM
- GI50 (SK-BR-3; read-out: GI50 SK-BR3): 0.0131 µM
- CC50 (SK-BR-3; read-out: LC50 SK-BR3): 0.645 µM
- IC (TGI) (SK-BR-3; read-out: TGI SK-BR3): 0.0877 µM
- GI50 (PANC-1; read-out: GI50 PANC-1): 0.509 µM
- CC50 (PANC-1; read-out: LC50 PANC-1): 12.9 µM
- IC (TGI) (PANC-1; read-out: TGI PANC-1): 1.26 µM
- GI50 (SK-MEL-28; read-out: GI50 MEL-28): 0.247 µM
- CC50 (SK-MEL-28; read-out: LC50 MEL-28): 0.857 µM
- IC (TGI) (SK-MEL-28; read-out: TGI MEL-28): 0.46 µM
- GI50 (LoVo-Dox; read-out: GI50 LOVO-DOX): 0.661 µM
- CC50 (LoVo-Dox): 12.9 µM
- IC (TGI) (LoVo-Dox; read-out: TGI LOVO-DOX): 7.46 µM
- GI50 (IGROV-ET; read-out: GI50 IGROV-ET): 0.456 µM
- CC50 (IGROV-ET; read-out: LC50 IGROV-ET): 1.26 µM
- IC (TGI) (IGROV-ET; read-out: TGI IGROV-ET): 0.76 µM
- GI50 (LNCaP; read-out: GI50 LNCAP): 0.153 µM
- CC50 (LNCaP; read-out: LC50 LNCAP): 0.657 µM
- IC (TGI) (LNCaP; read-out: TGI LNCAP): 0.318 µM
- GI50 (K-562; read-out: GI50 K562): 0.0203 µM
- CC50 (K-562; read-out: LC50 K562): 1.4 µM
- IC (TGI) (K-562; read-out: TGI K562): 0.0733 µM
- GI50 (HeLa-APL; read-out: GI50 HELA-APL): 0.0356 µM
- CC50 (HeLa-APL; read-out: LC50 HELA-APL): 0.102 µM
- IC (TGI) (HeLa-APL; read-out: TGI HELA-APL): 0.0603 µM
- GI50 (HeLa; read-out: GI50 HELA): 0.0382 µM
- CC50 (HeLa): 0.114 µM
- IC (TGI) (HeLa; read-out: TGI HELA): 0.066 µM
